Laboratory results published in PubChem BioAssay (NCI).
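All cell lines were grown in 96-well plates and treated with compound for 48 hours. Abbreviation: GI50, concentration required for 50% inhibition of growth. TGI: concentration producing complete growth inhibition.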

Key:
Assay in all cases: DTP human tumour cell line panel, 48 h
[1] = system: RXF 393 renal
[2] = system: MCF7 breast
[3] = system: SNB-75 CNS
[4] = system: NCI-H522 lung
[5] = system: MDA-MB-231 breast
[6] = system: SK-OV-3 ovarian
[7] = system: IGROV1 ovarian
[8] = system: SF-539 CNS
[9] = system: MALME-3M melanoma
[10] = system: NCI-H23 lung
[11] = system: NCI/ADR-RES ovarian
[12] = system: OVCAR-3 ovarian
[13] = system: OVCAR-5 ovarian
[14] = system: A498 renal
[15] = system: CAKI-1 renal
[16] = system: HCT-116 colon
[17] = system: UACC-62 melanoma
[18] = system: K-562 leukemia
[19] = system: HOP-62 NSCLC
[20] = system: SNB-19 CNS
[21] = system: M14 melanoma
[22] = system: SW-620 colon
[23] = system: HL-60(TB) leukemia
[24] = system: NCI-H460 lung
[25] = system: SR leukemia
[26] = system: HCC-2998 colon
[27] = system: RPMI-8226 leukemia
[28] = system: SF-268 CNS
[29] = system: MDA-MB-435
[30] = system: BT-549 breast
[31] = system: ACHN renal
[32] = system: PC-3 prostate
[33] = system: DU-145 prostate
[34] = system: MOLT-4 leukemia
[35] = system: KM12 colon
[36] = system: OVCAR-4 ovarian
[37] = system: 786-0 renal
[38] = system: COLO 205 colon
[39] = system: SN12C renal
[40] = system: SK-MEL-28 melanoma
[41] = system: SK-MEL-2 melanoma
[42] = system: CCRF-CEM leukemia
[43] = system: LOX IMVI melanoma
[44] = system: NCI-H226 lung
[45] = system: U251 CNS
[46] = system: OVCAR-8 ovarian
[47] = system: HS 578T breast
[48] = system: HCT-15 colon
[49] = system: SK-MEL-5 melanoma
[50] = system: UO-31 renal
[51] = system: UACC-257 melanoma
[52] = system: T-47D breast
[53] = system: A549 NSCLC
[54] = system: TK-10 renal
[55] = system: HT29 colon

Compound: COc1ccc(-c2nc(-c3nc4cc(C)c(C)cc4[nH]3)cc3c2[nH]c2ccccc23)cc1
- GI50 [1]: 1.72 µM
- TGI [1]: 3.66 µM
- GI50 [2]: 3.22 µM
- TGI [2]: 59.7 µM
- GI50 [3]: 3.44 µM
- TGI [3]: 35 µM
- GI50 [4]: 3 µM
- TGI [4]: 13.5 µM
- GI50 [5]: 2.54 µM
- TGI [5]: 7.76 µM
- GI50 [6]: 13 µM
- TGI [6]: 48.1 µM
- GI50 [7]: 9.99 µM
- TGI [7]: > 100 µM
- GI50 [8]: 1.72 µM
- TGI [8]: 4.24 µM
- GI50 [9]: 4.6 µM
- TGI [9]: 16.5 µM
- GI50 [10]: 11 µM
- TGI [10]: 68.2 µM
- GI50 [11]: 6.37 µM
- TGI [11]: > 100 µM
- GI50 [12]: 2.25 µM
- TGI [12]: 4.6 µM
- GI50 [13]: 4.01 µM
- TGI [13]: > 100 µM
- GI50 [14]: 14.4 µM
- TGI [14]: 42.4 µM
- GI50 [15]: 2.44 µM
- TGI [15]: 44.5 µM
- GI50 [16]: 3.22 µM
- TGI [16]: 13 µM
- GI50 [17]: 2.25 µM
- TGI [17]: 6.7 µM
- GI50 [18]: 3.36 µM
- TGI [18]: 20.9 µM
- GI50 [19]: 7.63 µM
- TGI [19]: > 100 µM
- GI50 [20]: 68.9 µM
- TGI [20]: > 100 µM
- GI50 [21]: 4.16 µM
- TGI [21]: 24.8 µM
- GI50 [22]: 7.54 µM
- TGI [22]: > 100 µM
- GI50 [23]: 2.59 µM
- TGI [23]: 5.96 µM
- GI50 [24]: 3.49 µM
- TGI [24]: > 100 µM
- GI50 [25]: 2.33 µM
- TGI [25]: 7.17 µM
- GI50 [26]: 3.88 µM
- TGI [26]: 94.8 µM
- GI50 [27]: 1.77 µM
- TGI [27]: 5.16 µM
- GI50 [28]: 12.7 µM
- TGI [28]: > 100 µM
- GI50 [29]: 3.97 µM
- TGI [29]: > 100 µM
- GI50 [30]: 2.96 µM
- TGI [30]: 8.21 µM
- GI50 [31]: 2.6 µM
- TGI [31]: 27.9 µM
- GI50 [32]: 2.77 µM
- TGI [32]: 44 µM
- GI50 [33]: 8.53 µM
- TGI [33]: > 100 µM
- GI50 [34]: 2.37 µM
- TGI [34]: 6.46 µM
- GI50 [35]: 3.5 µM
- TGI [35]: 24.9 µM
- GI50 [36]: 6.98 µM
- TGI [36]: > 100 µM
- GI50 [37]: 2.6 µM
- TGI [37]: 5.93 µM
- GI50 [38]: 1.79 µM
- TGI [38]: 3.8 µM
- GI50 [39]: 5.54 µM
- TGI [39]: > 100 µM
- GI50 [40]: 2.89 µM
- TGI [40]: 10.5 µM
- GI50 [41]: 3.28 µM
- TGI [41]: 8.25 µM
- GI50 [42]: 2.51 µM
- TGI [42]: 7.56 µM
- GI50 [43]: 3.08 µM
- TGI [43]: 11.2 µM
- GI50 [44]: 3.32 µM
- TGI [44]: 54.8 µM
- GI50 [45]: 3.04 µM
- TGI [45]: 16.6 µM
- GI50 [46]: 3.46 µM
- TGI [46]: > 100 µM
- GI50 [47]: 4.6 µM
- TGI [47]: > 100 µM
- GI50 [48]: 2.68 µM
- TGI [48]: 72.5 µM
- GI50 [49]: 2.9 µM
- TGI [49]: 12.6 µM
- GI50 [50]: 2.53 µM
- TGI [50]: 52.5 µM
- GI50 [51]: 3.47 µM
- TGI [51]: 14.4 µM
- GI50 [52]: 3.09 µM
- TGI [52]: 7.92 µM
- GI50 [53]: 3.94 µM
- TGI [53]: > 100 µM
- GI50 [54]: 7.85 µM
- TGI [54]: > 100 µM
- GI50 [55]: 3.76 µM
- TGI [55]: > 100 µM
